From publication PMC3271384 (Molecular Genetics and Metabolism, 2012)
Positions count from the first letter of the chain named.

Assays:
Type in all cases: binding
[1] = molecular target: T1, AGT-Ma (Homo sapiens, UniProt P21549, S218L); test: CD signal at […] nm titration of apoenzyme
T1 sequence (P21549 1-392 S218L): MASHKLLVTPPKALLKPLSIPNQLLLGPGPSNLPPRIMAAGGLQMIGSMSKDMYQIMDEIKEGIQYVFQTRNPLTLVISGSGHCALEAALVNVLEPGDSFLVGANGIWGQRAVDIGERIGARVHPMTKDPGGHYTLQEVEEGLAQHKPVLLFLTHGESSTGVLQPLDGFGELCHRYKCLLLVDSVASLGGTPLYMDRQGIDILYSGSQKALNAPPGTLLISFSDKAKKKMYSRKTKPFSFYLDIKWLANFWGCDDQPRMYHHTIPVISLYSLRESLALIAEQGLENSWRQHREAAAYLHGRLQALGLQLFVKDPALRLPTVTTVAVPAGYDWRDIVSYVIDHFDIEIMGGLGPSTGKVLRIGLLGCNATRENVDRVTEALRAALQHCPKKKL

[2] = molecular target: T2, AGT-Ma (Homo sapiens, UniProt P21549, P319L); test: quenching of intrinsic fluorescence of apoenzyme
T2 sequence (P21549 1-392 P319L): T1 sequence (P21549 1-392 S218L) with L218S, P319L

[3] = molecular target: T3, AGT-Mi (Homo sapiens, UniProt P21549, I340M/P11L/W108R); test: CD signal at […] nm titration of apoenzyme
T3 sequence (P21549 1-392 P11L/W108R/I340M): T1 sequence (P21549 1-392 S218L) with P11L, W108R, L218S, I340M

[4] = molecular target: T4, AGT-Ma (Homo sapiens, UniProt P21549, S187F); test: intrinsic fluorescence
T4 sequence (P21549 1-392 S187F): T1 sequence (P21549 1-392 S218L) with S187F, L218S

[5] = molecular target: T5, AGT-Mi (Homo sapiens, UniProt P21549, G161S/I340M/P11L); test: quenching of intrinsic fluorescence of apoenzyme
T5 sequence (P21549 1-392 P11L/G161S/I340M): T1 sequence (P21549 1-392 S218L) with P11L, G161S, L218S, I340M

[6] = molecular target: T6, AGT-Mi (Homo sapiens, UniProt P21549, G161C/I340M/P11L); test: quenching of intrinsic fluorescence of apoenzyme
T6 sequence (P21549 1-392 P11L/G161C/I340M): T1 sequence (P21549 1-392 S218L) with P11L, G161C, L218S, I340M

[7] = molecular target: T7, AGT-Ma (Homo sapiens, UniProt P21549, D183N); test: CD signal at […] nm titration of apoenzyme
T7 sequence (P21549 1-392 D183N): T1 sequence (P21549 1-392 S218L) with D183N, L218S

For `Cc1ncc(COP(=O)(O)O)c(C=O)c1O` [PLP], the Kd [1] was 24200 ± 100 nM, the Kd [2] was 190 ± 40 nM and the Kd [3] was 96000 ± 19000 nM. The Kd [4] was under 10 nM, the Kd [5] was 460 ± 70 nM and the Kd [6] was 560 ± 90 nM. It also gave a Kd [7] of 2100 ± 100 nM.
